Experimental data published in patent publication US20240409585A1, “MACROCYCLIC IMMUNOMODULATORS” (priority 2021, published 2024).
Numbered stars: 1 amine (or outer) side, 2 acyl side, 3 side chain; on linkers, the order of the positions; unused ones are H or OH. Bridge positions count the residues as written; N and C are the ends. Square brackets hold non-standard residues; d marks the D form. Peptide text beside a SMILES is read from it. * marks the point of attachment. ξ: configuration not given here. Bip(4'-COOH) = N[C@@H](Cc1ccc(-c2ccc(C(=O)O)cc2)cc1)C(=O)O; Bip(4'-NHAc) = CC(=O)Nc1ccc(-c2ccc(C[C@H](N)C(=O)O)cc2)cc1; X17 = Nc1ccc(-c2cccc(C[C@H](N[*:1])C(=O)[*:2])c2)cn1; Phe(3-CF3) = N[C@@H](Cc1cccc(C(F)(F)F)c1)C(=O)O; Ala(morpholin-4-yl) = N[C@@H](CN1CCOCC1)C(=O)O; Phe(4-COOH) = N[C@@H](Cc1ccc(C(=O)O)cc1)C(=O)O; Bip = N[C@@H](Cc1ccc(-c2ccccc2)cc1)C(=O)O; Abu(3R-NH2) = C[C@@H](N)[C@H](N)C(=O)O; Phe(3-Me) = Cc1cccc(C[C@H](N)C(=O)O)c1; Propanoyl(3,3,3-F3) = O=C(CC(F)(F)F)*; Val(3-OH) = CC(C)(O)[C@H](N)C(=O)O; hArg = N=C(N)NCCCC[C@H](N)C(=O)O; hPhe = N[C@@H](CCc1ccccc1)C(=O)O; 2Pal = N[C@@H](Cc1ccccn1)C(=O)O; Nva(5-OH) = N[C@@H](CCCO)C(=O)O; Cha = N[C@@H](CC1CCCCC1)C(=O)O; Thr(3ξ) = CC(O)[C@H](N)C(=O)O; Carboxymethyl = O=C(O)C*; NMeA = CN[C@@H](C)C(=O)O; Orn = NCCC[C@H](N)C(=O)O; Dab = NCC[C@H](N)C(=O)O; Dap = NC[C@H](N)C(=O)O

target: T1, Alexa fluor-647 labeled human PD-L1-Ig binding to Jurkat cell line over-expressing human PD-1 (Homo sapiens, UniProt Q15116); test: Jurkat-PD-1 Cell Binding High-Content Screening Assay (CBA): Method 3 (Alexa fluor-647 labeled PD-L1-Ig); conditions: Jurkat-PD-1 cells, Alexa fluor-647 labeled PD-L1-Ig 177 nM; head μM; read-out: CBA Method 3 μM
T1 construct: expressed in transfected cells; host or cells: Jurkat
Summary of the method: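 Readout by high-content imaging of PFA-fixed, Hoechst-stained cells after 1 h with 177 nM (final) Alexa fluor-647 PD-L1-Ig. Compound was added first to hPD-1 Jurkat cells in RPMI plus 10% FCS for 2 h at 37 °C.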

T1 sequence (Q15116 25-288): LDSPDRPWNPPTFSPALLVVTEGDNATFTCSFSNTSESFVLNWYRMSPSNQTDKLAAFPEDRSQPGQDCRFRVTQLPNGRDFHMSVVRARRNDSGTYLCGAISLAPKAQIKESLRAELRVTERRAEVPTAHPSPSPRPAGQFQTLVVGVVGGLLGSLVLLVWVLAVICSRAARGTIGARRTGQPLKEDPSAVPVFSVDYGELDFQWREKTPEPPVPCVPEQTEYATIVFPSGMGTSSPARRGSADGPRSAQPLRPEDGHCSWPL

| Compound | IC50 |
| --- | --- |
| Cc1cccc(C[C@@H]2NC(=O)[C@H](CC(=O)O)NC(=O)[C@H](Cc3ccc(-c4ccc(C(=O)O)cc4)cc3)NC(=O)[C@H](CN3CCOCC3)NC(=O)CSC[C@@H](C(=O)N[C@@H](CCN)C(N)=O)NC(=O)[C@H](CO)NC(=O)[C@H](C(C)(C)O)NC(=O)[C@H](CC3CCCCC3)NC(=O)[C@H](CC(N)=O)NC(=O)[C@@H](CC(C)C)NC(=O)[C@H](C)N(C)C(=O)[C@H](Cc3ccc(OCC(=O)O)cc3)NC(=O)[C@H](Cc3ccc(-c4ccccc4)cc3)NC(=O)[C@H](Cc3ccc(-c4ccc(C(=O)O)cc4)cc3)NC2=O)c1 [Example 5130] ({CH2CO}-[Ala(morpholin-4-yl)][Bip(4'-COOH)]D[Phe(3-Me)][Bip(4'-COOH)][Bip]Y(Carboxymethyl)[NMeA][dL]N[Cha][Val(3-OH)]SC[Dab]-NH2; thioether N-14) | 0.06 µM |
| Cc1cccc(C[C@@H]2NC(=O)[C@H](CC(=O)O)NC(=O)[C@H](Cc3ccc(OCC(=O)O)cc3)NC(=O)[C@H](CN3CCOCC3)NC(=O)CSC[C@@H](C(=O)N[C@@H](CCN)C(N)=O)NC(=O)[C@H](CCCO)NC(=O)[C@H](C(C)C)NC(=O)[C@H](CC3CCCCC3)NC(=O)[C@H](CCN)NC(=O)[C@@H](CC(C)C)NC(=O)[C@H](C)N(C)C(=O)[C@H](CCC(N)=O)NC(=O)[C@H](Cc3ccc(-c4ccccc4)cc3)NC(=O)[C@H](Cc3cccc(-c4ccc(N)nc4)c3)NC2=O)c1 [Example 5100] ({CH2CO}-[Ala(morpholin-4-yl)]Y(Carboxymethyl)D[Phe(3-Me)][X17][Bip]Q[NMeA][dL][Dab][Cha]V[Nva(5-OH)]C[Dab]-NH2; thioether N-14) | 0.27 µM |
| Cc1cccc(C[C@@H]2NC(=O)[C@H](CC(=O)O)NC(=O)[C@H](Cc3ccc(OCC(=O)O)cc3)NC(=O)[C@H](CC3CCCCC3)NC(=O)CSC[C@@H](C(=O)N[C@@H](CCN)C(N)=O)NC(=O)[C@H](CCC(N)=O)NC(=O)[C@H](C(C)C)NC(=O)[C@H](CC3CCCCC3)NC(=O)[C@H](CCN)NC(=O)[C@@H](CC(C)C)NC(=O)[C@H](C)N(C)C(=O)[C@H](CCC(N)=O)NC(=O)[C@H](Cc3ccc(-c4ccccc4)cc3)NC(=O)[C@H](CCc3ccccc3)NC2=O)c1 [Example 5222] ({CH2CO}-[Cha]Y(Carboxymethyl)D[Phe(3-Me)][hPhe][Bip]Q[NMeA][dL][Dab][Cha]VQC[Dab]-NH2; thioether N-14) | 0.02 µM |
| Cc1cccc(C[C@@H]2NC(=O)[C@H](CC(=O)O)NC(=O)[C@H](Cc3ccc(OCC(=O)O)cc3)NC(=O)[C@H](CCCCNC(=N)N)NC(=O)CSC[C@@H](C(=O)N[C@@H](CCN)C(N)=O)NC(=O)[C@H](CCC(=O)O)NC(=O)[C@H](C(C)C)NC(=O)[C@H](CC3CCCCC3)NC(=O)[C@H](CCN)NC(=O)[C@@H](CC(C)C)NC(=O)[C@H](C)N(C)C(=O)[C@H](CCC(N)=O)NC(=O)[C@H](Cc3ccc(-c4ccccc4)cc3)NC(=O)[C@H](CCc3ccccc3)NC2=O)c1 [Example 5283] ({CH2CO}-[hArg]Y(Carboxymethyl)D[Phe(3-Me)][hPhe][Bip]Q[NMeA][dL][Dab][Cha]VEC[Dab]-NH2; thioether N-14) | 0.01 µM |
| Cc1cccc(C[C@@H]2NC(=O)[C@H](CC(=O)O)NC(=O)[C@H](Cc3ccc(-c4ccc(C(=O)O)cc4)cc3)NC(=O)[C@H](CN3CCOCC3)NC(=O)CSC[C@@H](C(=O)N[C@@H](CCN)C(N)=O)NC(=O)[C@H](Cc3cnc[nH]3)NC(=O)[C@H](C(C)(C)O)NC(=O)[C@H](CC3CCCCC3)NC(=O)[C@H](CCN)NC(=O)[C@@H](CC(C)C)NC(=O)[C@H](C)N(C)C(=O)[C@H](Cc3ccc(C(=O)O)cc3)NC(=O)[C@H](Cc3ccc(-c4ccccc4)cc3)NC(=O)[C@H](Cc3ccc(-c4ccc(C(=O)O)cc4)cc3)NC2=O)c1 [Example 5133] ({CH2CO}-[Ala(morpholin-4-yl)][Bip(4'-COOH)]D[Phe(3-Me)][Bip(4'-COOH)][Bip][Phe(4-COOH)][NMeA][dL][Dab][Cha][Val(3-OH)]HC[Dab]-NH2; thioether N-14) | 0.2 µM |
| Cc1cccc(C[C@@H]2NC(=O)[C@H](CC(=O)O)NC(=O)[C@H](Cc3ccc(OCC(=O)O)cc3)NC(=O)[C@H](Cc3ccccn3)NC(=O)CSC[C@@H](C(=O)N[C@@H](CCN)C(N)=O)NC(=O)[C@H](CCCN)NC(=O)[C@H](C(C)C)NC(=O)[C@H](CC3CCCCC3)NC(=O)[C@H](CCN)NC(=O)[C@@H](CC(C)C)NC(=O)[C@H](C)N(C)C(=O)[C@H](CCC(N)=O)NC(=O)[C@H](Cc3ccc(-c4ccccc4)cc3)NC(=O)[C@H](Cc3ccc(C(=O)O)cc3)NC2=O)c1 [Example 5172] ({CH2CO}-[2Pal]Y(Carboxymethyl)D[Phe(3-Me)][Phe(4-COOH)][Bip]Q[NMeA][dL][Dab][Cha]V[Orn]C[Dab]-NH2; thioether N-14) | 0.33 µM |
| Cc1cccc(C[C@@H]2NC(=O)[C@H](CC(=O)O)NC(=O)[C@H](Cc3ccc(OCC(=O)O)cc3)NC(=O)[C@H](CC3CCCCC3)NC(=O)CSC[C@@H](C(=O)N[C@@H](CCN)C(N)=O)NC(=O)[C@H](CCCN)NC(=O)[C@H](C(C)C)NC(=O)[C@H](CC3CCCCC3)NC(=O)[C@H](CCN)NC(=O)[C@@H](CC(C)C)NC(=O)[C@H](C)N(C)C(=O)[C@H](CCC(N)=O)NC(=O)[C@H](Cc3ccc(-c4ccccc4)cc3)NC(=O)[C@H](Cc3ccc(C(=O)O)cc3)NC2=O)c1 [Example 5174] ({CH2CO}-[Cha]Y(Carboxymethyl)D[Phe(3-Me)][Phe(4-COOH)][Bip]Q[NMeA][dL][Dab][Cha]V[Orn]C[Dab]-NH2; thioether N-14) | 0.01 µM |
| CC(C)C[C@H]1NC(=O)[C@H](C)N(C)C(=O)[C@H](Cc2ccc(C(=O)O)cc2)NC(=O)[C@H](Cc2ccc(-c3ccccc3)cc2)NC(=O)[C@H](CCc2ccccc2)NC(=O)[C@H](Cc2cccc(C(F)(F)F)c2)NC(=O)[C@H](CC(=O)O)NC(=O)[C@H](Cc2ccc(C(=O)O)cc2)NC(=O)[C@H](CN2CCOCC2)NC(=O)CSC[C@@H](C(=O)N[C@@H](CCN)C(N)=O)NC(=O)[C@H](CNC(=O)CC(F)(F)F)NC(=O)[C@H](C(C)C)NC(=O)[C@H](CC2CCCCC2)NC(=O)[C@H](CCN)NC1=O [Example 5232] ({CH2CO}-[Ala(morpholin-4-yl)][Phe(4-COOH)]D[Phe(3-CF3)][hPhe][Bip][Phe(4-COOH)][NMeA][dL][Dab][Cha]V[Dap](Propanoyl(3,3,3-F3))C[Dab]-NH2; thioether N-14) | 0.1 µM |

same assay, conditions: Jurkat-PD-1 cells, Alexa fluor-647 labeled PD-L1-Ig 177 nM; nM; read-out: CBA Method 3

| Compound | IC50 |
| --- | --- |
| CC(C)C[C@H]1NC(=O)[C@H](C)N(C)C(=O)[C@H](CCC(N)=O)NC(=O)[C@H](Cc2ccc(-c3ccccc3)cc2)NC(=O)[C@H](CCc2ccccc2)NC(=O)[C@H](Cc2cccc(C(F)(F)F)c2)NC(=O)[C@H](CC(=O)O)NC(=O)[C@H](CCC(N)=O)NC(=O)[C@H]([C@@H](C)N)NC(=O)CSC[C@@H](C(=O)N[C@@H](CCN)C(N)=O)NC(=O)[C@H](CCCN)NC(=O)[C@H](C(C)C)NC(=O)[C@H](CC2CCCCC2)NC(=O)[C@H](CCN)NC1=O [Example 5247] ({CH2CO}-[Abu(3R-NH2)]QD[Phe(3-CF3)][hPhe][Bip]Q[NMeA][dL][Dab][Cha]V[Orn]C[Dab]-NH2; thioether N-14) | 0.0017 µM |
| CC(C)C[C@H]1NC(=O)[C@H](C)N(C)C(=O)[C@H](Cc2ccc(OCC(=O)O)cc2)NC(=O)[C@H](Cc2ccc(-c3ccccc3)cc2)NC(=O)[C@H](Cc2ccc(C(=O)O)cc2)NC(=O)[C@H](Cc2cccc(C(F)(F)F)c2)NC(=O)[C@H](CC(=O)O)NC(=O)[C@H](Cc2ccc(OCC(=O)O)cc2)NC(=O)[C@H](C(C)O)NC(=O)CSC[C@@H](C(=O)N[C@@H](CCN)C(N)=O)NC(=O)[C@H]([C@@H](C)O)NC(=O)[C@H](C(C)C)NC(=O)[C@H](CC2CCCCC2)NC(=O)[C@H](CCN)NC1=O (stereo partly drawn) [Example 5143] ({CH2CO}-[Thr(3ξ)]Y(Carboxymethyl)D[Phe(3-CF3)][Phe(4-COOH)][Bip]Y(Carboxymethyl)[NMeA][dL][Dab][Cha]VTC[Dab]-NH2; thioether N-14) | 0.007 µM |
| CC(=O)Nc1ccc(-c2ccc(C[C@@H]3NC(=O)[C@H](Cc4cccc(C(F)(F)F)c4)NC(=O)[C@H](CC(=O)O)NC(=O)[C@H](Cc4ccc(C(=O)O)cc4)NC(=O)[C@H]([C@@H](C)N)NC(=O)CSC[C@@H](C(=O)N[C@@H](CCN)C(N)=O)NC(=O)[C@H](CCC(=O)O)NC(=O)[C@H](C(C)C)NC(=O)[C@H](CC4CCCCC4)NC(=O)[C@H](CCN)NC(=O)[C@@H](CC(C)C)NC(=O)[C@H](C)N(C)C(=O)[C@H](Cc4ccc(OCC(=O)O)cc4)NC(=O)[C@H](Cc4ccc(-c5ccccc5)cc4)NC3=O)cc2)cc1 [Example 5162] ({CH2CO}-[Abu(3R-NH2)][Phe(4-COOH)]D[Phe(3-CF3)][Bip(4'-NHAc)][Bip]Y(Carboxymethyl)[NMeA][dL][Dab][Cha]VEC[Dab]-NH2; thioether N-14) | 0.0005 µM |
| CC(=O)Nc1ccc(-c2ccc(C[C@@H]3NC(=O)[C@H](Cc4cccc(C(F)(F)F)c4)NC(=O)[C@H](CC(=O)O)NC(=O)[C@H](Cc4ccc(C(=O)O)cc4)NC(=O)[C@H]([C@@H](C)N)NC(=O)CSC[C@@H](C(=O)N[C@@H](CCN)C(N)=O)NC(=O)[C@H](CCC(=O)O)NC(=O)[C@H](C(C)C)NC(=O)[C@H](CC4CCCCC4)NC(=O)[C@H](CCN)NC(=O)[C@@H](CC(C)C)NC(=O)[C@H](C)N(C)C(=O)[C@H](Cc4ccc(C(=O)O)cc4)NC(=O)[C@H](Cc4ccc(-c5ccccc5)cc4)NC3=O)cc2)cc1 [Example 5154] ({CH2CO}-[Abu(3R-NH2)][Phe(4-COOH)]D[Phe(3-CF3)][Bip(4'-NHAc)][Bip][Phe(4-COOH)][NMeA][dL][Dab][Cha]VEC[Dab]-NH2; thioether N-14) | 0.0063 µM |
| CC(C)C[C@H]1NC(=O)[C@H](C)N(C)C(=O)[C@H](Cc2ccc(C(=O)O)cc2)NC(=O)[C@H](Cc2ccc(-c3ccccc3)cc2)NC(=O)[C@H](Cn2cc(C3CC3)nn2)NC(=O)[C@H](Cc2cccc(C(F)(F)F)c2)NC(=O)[C@H](CC(=O)O)NC(=O)[C@H](Cc2ccc(C(=O)O)cc2)NC(=O)[C@H]([C@@H](C)N)NC(=O)CSC[C@@H](C(=O)N[C@@H](CCN)C(N)=O)NC(=O)[C@H](CCC(=O)O)NC(=O)[C@H](C(C)C)NC(=O)[C@H](CC2CCCCC2)NC(=O)[C@H](CCN)NC1=O [Example 5251] | 0.0016 µM |
